Molecular target: R232-STING (Homo sapiens, UniProt Q86WV6, H232R)
Test: biochemical

Chain of R232-STING (Q86WV6 155-341 H232R): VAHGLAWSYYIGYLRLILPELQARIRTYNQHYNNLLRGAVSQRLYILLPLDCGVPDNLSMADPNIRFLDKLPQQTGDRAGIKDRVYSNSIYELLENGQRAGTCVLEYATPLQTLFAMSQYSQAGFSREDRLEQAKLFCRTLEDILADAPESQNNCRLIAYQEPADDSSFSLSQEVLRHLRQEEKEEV

Row | Ki [nM] | SMILES
1 | 661 | CCn1nc(C)cc1-c1n[nH]c(-c2cc(C(N)=O)cc3c2cnn3CCN2C[C@@H](C)OC[C@H]2C)n1 [ZZZ097, 1-{2-[(2R,5R)-2,5-dimethylmorpholin-4-yl]ethyl}-4-[3-(1-ethyl-3-methyl-1H-pyrazol-5-yl)-1H-1,2,4-triazol-5-yl]-1H-indazole-6-carboxamide]
2 | 541 | CCn1nc(C)cc1-c1n[nH]c(-c2cc(C(N)=O)cc3c2cnn3CCN2CCO[C@H](C)C2)n1 [ZZZ098, 4-[3-(1-ethyl-3-methyl-1H-pyrazol-5-yl)-1H-1,2,4-triazol-5-yl]-1-{2-[(2R)-2-methylmorpholin-4-yl]ethyl}-1H-indazole-6-carboxamide]
3 | > 90 | CCn1nc(C(=O)O)cc1-c1n[nH]c(-c2nc(C(N)=O)cc3c2cnn3C)n1 [ZZZ004, 5-[5-(6-carbamoyl-1-methyl-1H-pyrazolo[4,3-c]pyridin-4-yl)-1H-1,2,4-triazol-3-yl]-1-ethyl-1H-pyrazole-3-carboxylic acid]
4 | > 990 | CCn1nc(C)cc1-c1nnc(-c2cc(C(N)=O)cc3nn(C)nc23)[nH]1 [ZZZ003, 7-[5-(1-ethyl-3-methyl-1H-pyrazol-5-yl)-4H-1,2,4-triazol-3-yl]-2-methyl-2H-benzotriazole-5-carboxamide]
5 | > 990 | CCn1nc(C)cc1-c1nnc(-c2cc(C(N)=O)cc3c2cnn3C[C@@H]2CCC3(CNC3)O2)[nH]1 (racemic) [ZZZ063, 4-[5-(1-ethyl-3-methyl-1H-pyrazol-5-yl)-4H-1,2,4-triazol-3-yl]-1-{[(6S)-5-oxa-2-azaspiro[3.4]octan-6-yl]methyl}-1H-indazole-6-carboxamide]
6 | 536 | CCn1nc(C)cc1-c1nnc(-c2cc(C(N)=O)cc3c2cnn3C2CCNCC2)[nH]1 [ZZZ067, 4-[5-(1-ethyl-3-methyl-1H-pyrazol-5-yl)-4H-1,2,4-triazol-3-yl]-1-(piperidin-4-yl)-1H-indazole-6-carboxamide]
7 | > 990 | CCn1nc(C)cc1-c1nnc(-c2cc(C(N)=O)cc3c2cnn3C[C@@H]2CNCCO2)[nH]1 [ZZZ064, 4-[5-(1-ethyl-3-methyl-1H-pyrazol-5-yl)-4H-1,2,4-triazol-3-yl]-1-{[(2S)-morpholin-2-yl]methyl}-1H-indazole-6-carboxamide]
8 | 917 | CCn1nc(C)cc1-c1n[nH]c(-c2cc(C(N)=O)cc3c2cnn3CCN2C[C@H](C)OC[C@H]2C)n1 (racemic) [ZZZ089, 1-{2-[(2S,5R)-2,5-dimethylmorpholin-4-yl]ethyl}-4-[3-(1-ethyl-3-methyl-1H-pyrazol-5-yl)-1H-1,2,4-triazol-5-yl]-1H-indazole-6-carboxamide]
9 | 964 | CCn1nc(C)cc1-c1nnc(-c2cc(C(N)=O)cc3c2cnn3C[C@H]2C[C@H]3CC[C@@H](C2)N3)[nH]1 [ZZZ065, 1-{[(1R,3r,5S)-8-azabicyclo[3.2.1]octan-3-yl]methyl}-4-[5-(1-ethyl-3-methyl-1H-pyrazol-5-yl)-4H-1,2,4-triazol-3-yl]-1H-indazole-6-carboxamide]
10 | 944 | CCn1nc(C)cc1-c1n[nH]c(-c2cc(C(N)=O)cc3c2cnn3CCN2CC[C@H](OC)C2)n1 [ZZZ106, 4-[3-(1-ethyl-3-methyl-1H-pyrazol-5-yl)-1H-1,2,4-triazol-5-yl]-1-{2-[(3S)-3-methoxypyrrolidin-1-yl]ethyl}-1H-indazole-6-carboxamide]
11 | 731 | CCn1nc(C)cc1-c1n[nH]c(-c2cc(C(N)=O)cc3c2cnn3CCN2C[C@@H]3C[C@H]2CO3)n1 [ZZZ113, 4-[3-(1-ethyl-3-methyl-1H-pyrazol-5-yl)-1H-1,2,4-triazol-5-yl]-1-{2-[(1S,4S)-2-oxa-5-azabicyclo[2.2.1]heptan-5-yl]ethyl}-1H-indazole-6-carboxamide]
12 | 550 | CCn1nc(C)cc1-c1n[nH]c(-c2cc(C(N)=O)cc3c2cnn3CCN2CC3(CCCO3)C2)n1 [ZZZ094, 4-[3-(1-ethyl-3-methyl-1H-pyrazol-5-yl)-1H-1,2,4-triazol-5-yl]-1-[2-(5-oxa-2-azaspiro[3.4]octan-2-yl)ethyl]-1H-indazole-6-carboxamide]
13 | > 990 | CCn1nc(C)cc1-c1nnc(-c2cc(C(N)=O)cc3c2cnn3CC2CC3(CNC3)C2)[nH]1 [ZZZ080, 1-[(2-azaspiro[3.3]heptan-6-yl)methyl]-4-[5-(1-ethyl-3-methyl-1H-pyrazol-5-yl)-4H-1,2,4-triazol-3-yl]-1H-indazole-6-carboxamide]
14 | 835 | CCn1nc(C)cc1-c1nnc(-c2cc(C(N)=O)cc3c2cnn3C[C@H]2CC23CCNCC3)[nH]1 (racemic) [ZZZ072, 1-{[(1S)-6-azaspiro[2.5]octan-1-yl]methyl}-4-[5-(1-ethyl-3-methyl-1H-pyrazolo-5-yl)-4H-1,2,4-triazol-3-yl]-1H-indazole-6-carboxamide]
15 | > 990 | CCn1nc(C)cc1-c1n[nH]c(-c2cc(C(N)=O)cc3c2cnn3CCN2CC[C@H](O)C2)n1 (racemic) [ZZZ119, 4-[3-(1-ethyl-3-methyl-1H-pyrazol-5-yl)-1H-1,2,4-triazol-5-yl]-1-{2-[(3S)-3-hydroxypyrrolidin-1-yl]ethyl}-1H-indazole-6-carboxamide]
16 | > 990 | CCn1nc(C)c(I)c1-c1nnc(-c2cc(C(N)=O)cc3c2cnn3C)[nH]1 [ZZZ053, 4-[5-(1-ethyl-4-iodo-3-methyl-1H-pyrazol-5-yl)-4H-1,2,4-triazol-3-yl]-1-methyl-1H-indazole-6-carboxamide]

Row | Ki [nM] | SMILES
17 | 727 | CCn1nc(C)cc1-c1nnc(-c2cc(C(N)=O)cc3c2cnn3CCCCN2CCOCC2)[nH]1 [ZZZ037, 4-[5-(1-ethyl-3-methyl-1H-pyrazol-5-yl)-4H-1,2,4-triazol-3-yl]-1-[4-(morpholin-4-yl)butyl]-1H-indazole-6-carboxamide]
18 | > 990 | CCn1nc(CN)cc1-c1nc(-c2nc(C(N)=O)cc3c2cnn3C)n(C)n1 [ZZZ121, 4-{3-[3-(aminomethyl)-1-ethyl-1H-pyrazol-5-yl]-1-methyl-1H-1,2,4-triazol-5-yl}-1-methyl-1H-pyrazolo[4,3-c]pyridine-6-carboxamide]
19 | > 990 | CCn1nc(C)cc1-c1n[nH]c(-c2cc(C(N)=O)cc3c2cnn3CCN2CC[C@@H](O)C2)n1 [ZZZ107, 4-[3-(1-ethyl-3-methyl-1H-pyrazol-5-yl)-1H-1,2,4-triazol-5-yl]-1-{2-[(3R)-3-hydroxypyrrolidin-1-yl]ethyl}-1H-indazole-6-carboxamide]
20 | 556 | CCn1nc(C)c(F)c1-c1nnc(-c2cc(C(N)=O)cn3cncc23)[nH]1 [ZZZ128, 8-[5-(1-ethyl-4-fluoro-3-methyl-1H-pyrazol-5-yl)-4H-1,2,4-triazol-3-yl]imidazo[1,5-a]pyridine-6-carboxamide]
21 | 928 | CCn1nc(C)cc1-c1nnc(-c2cc(C(N)=O)cc3c2cnn3C[C@H]2CCN(C3CC3)C2)[nH]1 (racemic) [ZZZ038, 1-{[(3S)-1-cyclopropylpyrrolidin-3-yl]methyl}-4-[5-(1-ethyl-3-methyl-1H-pyrazol-5-yl)-4H-1,2,4-triazol-3-yl]-1H-indazole-6-carboxamide]
22 | > 990 | CCn1nc(C)c(F)c1-c1nnc(-c2cc(C(N)=O)cn3c(C(=O)O)ncc23)[nH]1 [ZZZ057, 6-carbamoyl-8-[5-(1-ethyl-4-fluoro-3-methyl-1H-pyrazol-5-yl)-4H-1,2,4-triazol-3-yl]imidazo[1,5-a]pyridine-3-carboxylic acid]
23 | > 990 | CCn1nc(C)cc1-c1nnc(-c2cc(C(N)=O)cc3c2cnn3CCCNC2CCCCC2)[nH]1 [ZZZ071, 1-[3-(cyclohexylamino)propyl]-4-[5-(1-ethyl-3-methyl-1H-pyrazol-5-yl)-4H-1,2,4-triazol-3-yl]-1H-indazole-6-carboxamide]
24 | > 990 | CCn1nc(C)cc1-c1nnc(-c2cc(C(N)=O)cc3c2cnn3CCOCCN(C)C)[nH]1 [ZZZ021, 1-{2-[2-(dimethylamino)ethoxy]ethyl}-4-[5-(1-ethyl-3-methyl-1H-pyrazol-5-yl)-4H-1,2,4-triazol-3-yl]-1H-indazole-6-carboxamide]
25 | > 990 | CCn1nc(C)cc1-c1nnc(-c2cc(C(N)=O)cc3c2cnn3CCCCN2CCCCC2)[nH]1 [ZZZ043, 4-[5-(1-ethyl-3-methyl-1H-pyrazol-5-yl)-4H-1,2,4-triazol-3-yl]-1-[4-(piperidin-1-yl)butyl]-1H-indazole-6-carboxamide]
26 | 190 | CCn1nc(C)cc1-c1n[nH]c(-c2nc(C(N)=O)cc3[nH]ncc23)n1 [ZZZ012, 4-[3-(1-ethyl-3-methyl-1H-pyrazol-5-yl)-1H-1,2,4-triazol-5-yl]-1H-pyrazolo[4,3-c]pyridine-6-carboxamide]
27 | 44.2 | Cn1ncc2c(-c3nc(-c4cc(C(F)(F)F)nn4CCC(=O)O)n[nH]3)cc(C(N)=O)cc21 [ZZZ085, 3-{5-[5-(6-carbamoyl-1-methyl-1H-indazol-4-yl)-1H-1,2,4-triazol-3-yl]-3-(trifluoromethyl)-1H-pyrazol-1-yl}propanoic acid]
28 | > 990 | CCn1nc(C)cc1-c1nnc(-c2cc(C(N)=O)cc3c2cnn3C[C@H]2CCCN2C)[nH]1 [ZZZ027, 4-[5-(1-ethyl-3-methyl-1H-pyrazol-5-yl)-4H-1,2,4-triazol-3-yl]-1-{[(2R)-1-methylpyrrolidin-2-yl]methyl}-1H-indazole-6-carboxamide]
29 | 541 | CCn1nc(C)cc1-c1nnc(-c2cc(C(N)=O)cc3c2cnn3CC23CCCC2CNC3)[nH]1 (centres unmarked) [ZZZ060, 4-[5-(1-ethyl-3-methyl-1H-pyrazol-5-yl)-4H-1,2,4-triazol-3-yl]-1-[(hexahydrocyclopenta[c]pyrrol-3a(1H)-yl)methyl]-1H-indazole-6-carboxamide]
30 | > 990 | CCn1nc(C)cc1-c1nnc(-c2cc(C(N)=O)cc3c2cnn3[C@H]2CCCNC2)[nH]1 (racemic) [ZZZ069, 4-[5-(1-ethyl-3-methyl-1H-pyrazol-5-yl)-4H-1,2,4-triazol-3-yl]-1-[(3S)-piperidin-3-yl]-1H-indazole-6-carboxamide]
31 | > 990 | CCn1nc(C)cc1-c1nc(C(=O)O)c(-c2nc(C(N)=O)cc3c2cnn3C)o1 [ZZZ131, 5-(6-carbamoyl-1-methyl-1H-pyrazolo[4,3-c]pyridin-4-yl)-2-(1-ethyl-3-methyl-1H-pyrazol-5-yl)-1,3-oxazole-4-carboxylic acid]
32 | > 990 | CCn1nc(C)cc1-c1nnc(-c2cc(C(N)=O)cc3[nH]ncc23)[nH]1 [ZZZ001, 4-[5-(1-ethyl-3-methyl-1H-pyrazol-5-yl)-4H-1,2,4-triazol-3-yl]-1H-indazole-6-carboxamide]

Source: US12297190B2, “Modulators of STING (stimulator of interferon genes)” (PFIZER INC., priority 2019, dated 2025)
